In US10030047B2 (Hoffmann-La Roche Inc., priority 2015, dated 2018):

System: A. baumannii strain ATCC17978
Experiment: 50% growth inhibitory concentration (IC50) determination, Iso-Sensitest broth
Format: cell-based
Settings: Acinetobacter baumannii; A. baumannii ATCC17978; Iso-Sensitest medium; OD 600 nm over 16 h; read-out: IC50 ATCC17978
Procedure: The in vitro antimicrobial activity of the compounds was alternatively determined according to the following procedure:
The assay used a 10-points Iso-Sensitest broth medium to measure quantitatively the in vitro activity of the compounds against A. baumannii ATCC 17978.
Stock compounds in DMSO were serially twofold diluted (e.g. range from 50 to 0.097 μM final concentration) in 384 wells microtiter plates and inoculated with 49 μl the bacterial suspension in Iso-Sensitest medium to have a final cell concentration of ˜5×10^(5) CFU/ml in a final volume/well of 50 ul/well. Microtiter plates were incubated at 35±2° C.
Bacterial cell growth was determined with the measurement of optical density at λ=600 nm each 20 minutes over a time course of 16 h.
Growth inhibition was calculated during the logarithmic growth of the bacterial cells with determination of the concentration inhibiting 50% (IC50) and 90% (IC90) of the growth.
Tables 3, 4 and 5 provide the 50% growth inhibitory concentrations (IC50) in micromoles per liter of the compounds of present invention obtained against the A. baumannii strain ATCC17978.

SMILES | IC50 [nM]
Cc1cc(-c2ccc3c(n2)CNC(=O)[C@H](Cc2c[nH]c4ccccc24)N(C)C(=O)[C@H](CCCCN)NC(=O)[C@H](CCCN)NCc2cccnc2S3)ccn1 [Example 215, (7S,10S,13S)-13-((1H-Indol-3-yl)methyl)-10-(4-aminobutyl)-7-(3-aminopropyl)-12-methyl-18-(2-methylpyridin-4-yl)-6,7,9,10,12,13,15,16-octahydrodipyrido[2,3-b:2′,3′-p][1,5,8,11,14]thiatetraazacycloheptadecine-8,11,14(5H)-trione] | 2000
CN1C(=O)[C@H](CCCCN)NC(=O)[C@H](CCCN)NCc2ccccc2Sc2c(Cl)cc(Br)cc2CNC(=O)[C@@H]1Cc1c[nH]c2ccccc12 [Example 151, (12S,15S,18S)-15-(4-Amino-butyl)-18-(3-amino-propyl)-6-bromo-4-chloro-12-(1H-indol-3-ylmethyl)-13-methyl-2-thia-10,13,16,19-tetraaza-tricyclo[19.4.0.0*3,8*]pentacosa-1(25),3,5,7,21,23-hexaene-11,14,17-trione] | 200
CN1C(=O)[C@H](CCCCN)NC(=O)[C@H](CCCO)NCc2cccnc2Sc2c(Cl)cc(Cl)cc2CNC(=O)[C@@H]1Cc1c[nH]c2ccccc12 [Example 252, (11S,14S,17S)-14-(4-Amino-butyl)-23,25-dichloro-11-(3-hydroxy-propyl)-17-(1H-indol-3-ylmethyl)-16-methyl-2-thia-4,10,13,16,19-pentaaza-tricyclo[19.4.0.0*3,8*]pentacosa-1(25),3(8),4,6,21,23-hexaene-12,15,18-trione] | 500
CN1C(=O)[C@H](CCCCN)NC(=O)[C@H](CCCN)NCc2cccnc2Sc2c(Cl)ccc(C(F)(F)F)c2CNC(=O)[C@@H]1Cc1c[nH]c2ccc(Cl)cc12 [Example 135, (11S,14S,17S)-14-(4-Amino-butyl)-11-(3-amino-propyl)-25-chloro-17-(5-chloro-1H-indol-3-ylmethyl)-16-methyl-22-trifluoromethyl-2-thia-4,10,13,16,19-pentaaza-tricyclo[19.4.0.0*3,8*]pentacosa-1(25),3,5,7,21,23-hexaene-12,15,18-trione] | 200
CNCCCC[C@@H]1NC(=O)[C@H](CCCN)NCc2cccnc2Sc2c(Cl)cc(Cl)cc2CNC(=O)[C@H](Cc2c[nH]c3ccccc23)N(C)C1=O [Example 251, (11S,14S,17S)-11-(3-Amino-propyl)-23,25-dichloro-17-(1H-indol-3-ylmethyl)-16-methyl-14-(4-methylamino-butyl)-2-thia-4,10,13,16,19-pentaaza-tricyclo[19.4.0.0*3,8*]pentacosa-1(25),3(8),4,6,21,23-hexaene-12,15,18-trione] | < 100
CN1C(=O)[C@H](CCCCN)NC(=O)[C@H](CCCN)NCc2cccnc2Sc2c(Cl)ccc(-c3ccc(C(=O)NCCN4CCOCC4)cc3)c2CNC(=O)[C@@H]1Cc1c[nH]c2ccccc12 [Example 249, 4-[(11S,14S,17S)-14-(4-Amino-butyl)-11-(3-amino-propyl)-25-chloro-17-(1H-indol-3-ylmethyl)-16-methyl-12,15,18-trioxo-2-thia-4,10,13,16,19-pentaaza-tricyclo[19.4.0.0*3,8*]pentacosa-1(25),3(8),4,6,21,23-hexaen-22-yl]-N-(2-morpholin-4-yl-ethyl)-benzamide] | < 100
CN1C(=O)[C@H](CCCN)NC(=O)[C@H](CCCN)NCc2ccccc2Sc2c(Cl)cc(Cl)cc2CNC(=O)[C@@H]1Cc1c[nH]c2ccccc12 [Example 133, (12S,15S,18S)— 15,18-Bis-(3-amino-propyl)-4,6-dichloro-12-(1H-indol-3-ylmethyl)-13-methyl-2-thia-10,13,16,19-tetraaza-tricyclo[19.4.0.0*3,8*]pentacosa-1(25),3,5,7,21,23-hexaene-11,14,17-trione] | 100
